# Measured values as given in patent publication US20040009599A1, “Antisense modulation of cellular inhibitor of apoptosis-1 expression” (priority 1998, published 2004).
# Strand notation (5' to 3'): a small letter for the sugar, then the base; units joined by * are phosphorothioate-linked, units joined directly phosphodiester-linked; [ ] holds rarer units or linkages, { } end groups; capitals alone tell only the bases. d = 2'-deoxy (DNA)
# System: human Cellular Inhibitor of Apoptosis-1 RNA
# Assay: Inhibition of Cellular Inhibitor of Apoptosis-1 mRNA levels by quantitative real-time PCR after oligonucleotide treatment of cells
# Format: cell-based
# Settings: for % Inhibition of Cellular Inhibitor of Apoptosis-1 mRNA levels: phosphorothioate oligodeoxynucleotides, oligonucleotide at final concentration of 150 nM with LIPOFECTIN, real-time PCR, averages from three experiments; for inhibition of Cellular Inhibitor of Apoptosis-1 expression: summary of Table 1, real-time PCR of mRNA levels
# Experimental: Cells were harvested 16 hours after oligonucleotide treatment.
# Poly(A)+ mRNA was isolated according to Miura et al., Clin. Chem., 1996, 42, 1758-1764. Other methods for poly(A)+ mRNA isolation are taught in, for example, Ausubel, F. M. et al., Current Protocols in Molecular Biology, Volume 1, pp. 4.5.1-4.5.3, John Wiley & Sons, Inc., 1993. […] 60 μL lysis buffer (10 mM Tris-HCl, pH 7.6, 1 mM EDTA, 0.5 M NaCl, 0.5% NP-40, 20 mM vanadyl-ribonucleoside complex) was added to each well, the plate was gently agitated and then incubated at room temperature for five minutes. 55 μL of lysate was transferred to Oligo d(T) coated 96-well plates (AGCT Inc., Irvine Calif.). Plates were incubated for 60 minutes at room temperature, washed 3 times with 200 μL of wash buffer (10 mM Tris-HCl pH 7.6, 1 mM EDTA, 0.3 M NaCl). After the final wash, the plate was blotted on paper towels to remove excess wash buffer and then air-dried for 5 minutes. 60 μL of elution buffer (5 mM Tris-HCl pH 7.6), preheated to 70° C. was added to each well, the plate was incubated on a 90° C. hot plate for 5 minutes, and the eluate was then transferred to a fresh 96-well plate.
# Cellular Inhibitor of Apoptosis-1 probes and primers were designed to hybridize to the human Cellular Inhibitor of Apoptosis-1 sequence, using published sequence information (GenBank accession number U37547, incorporated herein as SEQ ID NO:1).
# For Cellular Inhibitor of Apoptosis-1 the PCR primers were: […]
# Target sites are indicated by nucleotide numbers, as given in the sequence source reference (Genbank accession no. U37547), to which the oligonucleotide binds. All compounds in Table 1 are oligodeoxynucleotides with phosphorothioate backbones (internucleoside linkages) throughout. […] Data are averages from three experiments. If present, “N.D.” indicates “no data”.
substance,measurement,value
"ISIS 23365: phosphorothioate oligodeoxynucleotide tcgcttgtaaaggtatct, Coding target site 2661 (antisense dT*dC*dG*dC*dT*dT*dG*dT*dA*dA*dA*dG*dG*dT*dA*dT*dC*dT)",% Inhibition of Cellular Inhibitor of Apoptosis-1 mRNA levels,0%
"ISIS 23345: phosphorothioate oligodeoxynucleotide aggtggatgcacttctga, 5′ UTR target site 858 (antisense dA*dG*dG*dT*dG*dG*dA*dT*dG*dC*dA*dC*dT*dT*dC*dT*dG*dA)",% Inhibition of Cellular Inhibitor of Apoptosis-1 mRNA levels,0%
"ISIS 23333: phosphorothioate oligodeoxynucleotide aatcaactctactagcct, 5′ UTR target site 68 (antisense dA*dA*dT*dC*dA*dA*dC*dT*dC*dT*dA*dC*dT*dA*dG*dC*dC*dT)",% Inhibition of Cellular Inhibitor of Apoptosis-1 mRNA levels,47%
same,inhibition of Cellular Inhibitor of Apoptosis-1 expression,at least 20%
"ISIS 23370: phosphorothioate oligodeoxynucleotide ttcctggtttccagttct, 3′ UTR target site 3355 (antisense dT*dT*dC*dC*dT*dG*dG*dT*dT*dT*dC*dC*dA*dG*dT*dT*dC*dT)",% Inhibition of Cellular Inhibitor of Apoptosis-1 mRNA levels,46%
same,inhibition of Cellular Inhibitor of Apoptosis-1 expression,at least 20%
"ISIS 23340: phosphorothioate oligodeoxynucleotide aaaagctaagttcacaca, 5′ UTR target site 576 (antisense dA*dA*dA*dA*dG*dC*dT*dA*dA*dG*dT*dT*dC*dA*dC*dA*dC*dA)",% Inhibition of Cellular Inhibitor of Apoptosis-1 mRNA levels,0%
"ISIS 23347: phosphorothioate oligodeoxynucleotide tcaggtaggatgagtatc, 5′ UTR target site 994 (antisense dT*dC*dA*dG*dG*dT*dA*dG*dG*dA*dT*dG*dA*dG*dT*dA*dT*dC)",% Inhibition of Cellular Inhibitor of Apoptosis-1 mRNA levels,11%
"ISIS 23337: phosphorothioate oligodeoxynucleotide actttcttcctaactttg, 5′ UTR target site 352 (antisense dA*dC*dT*dT*dT*dC*dT*dT*dC*dC*dT*dA*dA*dC*dT*dT*dT*dG)",% Inhibition of Cellular Inhibitor of Apoptosis-1 mRNA levels,0%
"ISIS 23360: phosphorothioate oligodeoxynucleotide ttcccaacacctcaagcc, Coding target site 2093 (antisense dT*dT*dC*dC*dC*dA*dA*dC*dA*dC*dC*dT*dC*dA*dA*dG*dC*dC)",% Inhibition of Cellular Inhibitor of Apoptosis-1 mRNA levels,55%
same,inhibition of Cellular Inhibitor of Apoptosis-1 expression,at least 20%
"ISIS 23368: phosphorothioate oligodeoxynucleotide ttagatggcttcaagtgt, 3′ UTR target site 3071 (antisense dT*dT*dA*dG*dA*dT*dG*dG*dC*dT*dT*dC*dA*dA*dG*dT*dG*dT)",% Inhibition of Cellular Inhibitor of Apoptosis-1 mRNA levels,10%
"ISIS 23369: phosphorothioate oligodeoxynucleotide atatagttcaccaaacat, 3′ UTR target site 3222 (antisense dA*dT*dA*dT*dA*dG*dT*dT*dC*dA*dC*dC*dA*dA*dA*dC*dA*dT)",% Inhibition of Cellular Inhibitor of Apoptosis-1 mRNA levels,0%
"ISIS 23343: phosphorothioate oligodeoxynucleotide ataacagaccaattactg, 5′ UTR target site 724 (antisense dA*dT*dA*dA*dC*dA*dG*dA*dC*dC*dA*dA*dT*dT*dA*dC*dT*dG)",% Inhibition of Cellular Inhibitor of Apoptosis-1 mRNA levels,0%
"ISIS 23359: phosphorothioate oligodeoxynucleotide ctcagatttgaaatgcta, Coding target site 1936 (antisense dC*dT*dC*dA*dG*dA*dT*dT*dT*dG*dA*dA*dA*dT*dG*dC*dT*dA)",% Inhibition of Cellular Inhibitor of Apoptosis-1 mRNA levels,0%
"ISIS 23349: phosphorothioate oligodeoxynucleotide acctgggaaaagtctttg, Coding target site 1178 (antisense dA*dC*dC*dT*dG*dG*dG*dA*dA*dA*dA*dG*dT*dC*dT*dT*dT*dG)",% Inhibition of Cellular Inhibitor of Apoptosis-1 mRNA levels,0%
"ISIS 23342: phosphorothioate oligodeoxynucleotide tatatgcaggcttctttc, 5′ UTR target site 684 (antisense dT*dA*dT*dA*dT*dG*dC*dA*dG*dG*dC*dT*dT*dC*dT*dT*dT*dC)",% Inhibition of Cellular Inhibitor of Apoptosis-1 mRNA levels,23%
same,inhibition of Cellular Inhibitor of Apoptosis-1 expression,at least 20%
"ISIS 23366: phosphorothioate oligodeoxynucleotide attcttatccacaaataa, Coding target site 2774 (antisense dA*dT*dT*dC*dT*dT*dA*dT*dC*dC*dA*dC*dA*dA*dA*dT*dA*dA)",% Inhibition of Cellular Inhibitor of Apoptosis-1 mRNA levels,0%
